Test results reported in patent publication US11136362B2, “Peptide modulators of specific calcineurin protein-protein interactions” (The Board of Trustees of the Leland Stanford Junior …, priority 2016, dated 2021).
Where two headings read alike, the source gives them in different places. Ends that are not written are not given here.

Legend:
[1] = system: Sprague-Dawley rats; type: in vivo, rat; conditions: for HR / MAP / RPP: CAP 0.3 mg/kg, CsA 2.5 mg/kg, V1-cal 1 mg/kg, given 5 minutes prior to reperfusion
[2] = system: Sprague-Dawley TRPV1 knockout rats; test: In vivo LAD ischemia-reperfusion injury model in TRPV1 knockout rats; parameters: species or system rat
[3] = system: isolated rat hearts; test: Isolated heart model of ischemia-reperfusion injury; conditions: for heart rate when infused: 10 minutes prior to ischemia
[4] = Peptide stability, trypsin digestion analyzed by RP-HPLC; type: in vitro ADME; conditions: 20 minutes after exposure to trypsin; read-out: degraded
Protocol: FIG. 12: Determination of peptide stability. A. At baseline a single peak at 5 minutes was noted when V1-cal was analyzed by RP-HPLC (arrow in green). B. 10 minutes after trypsin digestion, V1-cal is still detected (arrow in green), yet is 75% degraded with the with multiple peaks detected as degradation products of V1-cal (black arrows). C. 20 minutes after exposure to trypsin, V1-cal is 100% degraded (with no peak at 5 minutes and multiple other peaks shown with black arrows detected).

[5] = system: Sprague-Dawley rats; test: In vivo rat remote conditioning (abdominal incision before LAD ischemia-reperfusion)
[6] = system: primary neonatal cardiomyocytes (PNCM); test: Mitochondrial membrane potential by live cell imaging (TMRE/CMXRos), normoxia; type: cell-based, rat
Description: • Primary Neonatal Cardiomyocyte Isolation: Rat pups 1-3 days of age were used for primary neonatal cardiomyocyte isolation as previously described (Disatnik et al., Journal of the American Heart Association, 2013. 2:e000461). • Peptide Synthesis: Peptides were synthesized using microwave chemistry on a Liberty Microwave Peptide Synthesizer (CEM Corporation) (Gross et al., Basic Research in Cardiology, 2013. 108:381). Peptides were synthesized as one polypeptide with TAT47-57 carrier in the following order: N-terminus-TAT47-57-spacer (Gly-Gly)-cargo-C-terminus. • RT PCR: Total RNA was isolated from PNCM on day 4 in culture and H9C2 cells at passages 18, 23, 24 (Ambion RNAqueous kit). To reduce DNA contamination in the preparations, the isolated total RNA was subject to precipitation with lithium chloride and DNase digestion (Ambion DNase free). cDNA was generated from mRNA using Takara Primescript cDNA synthesis kit with oligo dT primers. Previously described primers, forward: […] (SEQ ID NO:112) and reverse: […] […] The amplified PCR product was subcloned into the pCR TOPO vector (Invitrogen) and sequenced. • Quantitative PCR: cDNA from mRNA was generated from H9C2, PNCM, and heart tissues (RA, LA, RV, LV) as described above. […]

[7] = system: Sprague-Dawley rats
[8] = biological target: T1, TRPV1 (Homo sapiens, UniProt Q8NER1); conditions: in vivo; cited from earlier work
T1 construct: host or cells: human trial subjects (endogenous)
T1 sequence (Q8NER1 whole entry): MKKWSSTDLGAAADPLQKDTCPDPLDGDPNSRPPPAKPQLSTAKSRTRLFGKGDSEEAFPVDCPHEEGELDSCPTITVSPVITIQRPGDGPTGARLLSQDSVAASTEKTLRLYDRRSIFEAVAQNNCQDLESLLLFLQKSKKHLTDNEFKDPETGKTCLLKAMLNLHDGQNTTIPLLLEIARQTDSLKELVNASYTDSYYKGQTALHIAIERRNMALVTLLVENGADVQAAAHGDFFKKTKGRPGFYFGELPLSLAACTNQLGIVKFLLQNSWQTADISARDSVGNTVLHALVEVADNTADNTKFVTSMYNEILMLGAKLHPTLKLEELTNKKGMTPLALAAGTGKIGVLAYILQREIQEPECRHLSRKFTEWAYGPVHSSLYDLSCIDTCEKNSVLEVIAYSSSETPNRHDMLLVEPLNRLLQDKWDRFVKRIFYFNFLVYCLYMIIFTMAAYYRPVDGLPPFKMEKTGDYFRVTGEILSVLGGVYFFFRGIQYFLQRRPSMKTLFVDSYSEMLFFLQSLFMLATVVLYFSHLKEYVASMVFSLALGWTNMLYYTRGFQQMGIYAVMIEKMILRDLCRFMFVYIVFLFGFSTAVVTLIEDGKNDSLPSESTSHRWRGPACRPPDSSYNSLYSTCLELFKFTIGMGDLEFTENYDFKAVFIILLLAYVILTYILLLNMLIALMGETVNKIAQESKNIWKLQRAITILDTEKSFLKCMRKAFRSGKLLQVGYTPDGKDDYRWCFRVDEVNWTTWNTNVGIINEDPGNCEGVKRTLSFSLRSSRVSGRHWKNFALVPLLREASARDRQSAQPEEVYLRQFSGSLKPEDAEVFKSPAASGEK

[9] = system: H9C2 cells; test: H9C2 cell model of ischemia-reoxygenation, lactate dehydrogenase release; type: cell-based
[10] = 15 min Ischemia, capsaicin 0.1 mg/kg
[11] = 15 min Ischemia, capsaicin 0.3 mg/kg
[12] = 15 min Ischemia, capsaicin 1.0 mg/kg
[13] = 15 min Ischemia, capsaicin 3.0 mg/kg
[14] = 2 hrs Reperfusion, capsaicin 0.1 mg/kg
[15] = 2 hrs Reperfusion, capsaicin 0.3 mg/kg
[16] = 2 hrs Reperfusion, capsaicin 1.0 mg/kg
[17] = 2 hrs Reperfusion, capsaicin 3.0 mg/kg

Compound: YGRKKRRQRRRGGRAITILDTEKS [V1-cal]
- HR ([1]; 15 min Ischemia): 432 ± 10 beats/min
- MAP ([1]; 15 min Ischemia): 110 ± 5 mmHg
- RPP ([1]; 15 min Ischemia): 47 ± 3 mmHg/1000
- HR ([1]; 2 hrs Reperfusion): 389 ± 15 beats/min
- MAP ([1]; 2 hrs Reperfusion): 68 ± 5 mmHg
- RPP ([1]; 2 hrs Reperfusion): 26 ± 3 mmHg/1000
- HR ([1]; Baseline): 428 ± 6 beats/min
- MAP ([1]; Baseline): 115 ± 5 mmHg
- RPP ([1]; Baseline): 49 ± 3 mmHg/1000
- HR ([2]; 15 min Ischemia): 446 ± 13 beats/min
- MAP ([2]; 15 min Ischemia): 114 ± 7 mmHg
- RPP ([2]; 15 min Ischemia): 56 ± 4 mmHg/1000
- TIME ([2]; 15 min Ischemia): 37.1 ± 0.1
- MAP ([2]; 2 hrs Reperfusion): 84 ± 8 mmHg
- RPP ([2]; 2 hrs Reperfusion): 40 ± 4 mmHg/1000
- TIME ([2]; 2 hrs Reperfusion): 37 ± 0.1
- HR ([2]; Baseline): 439 ± 12 beats/min
- MAP ([2]; Baseline): 123 ± 6 mmHg
- RPP ([2]; Baseline): 61 ± 4 mmHg/1000
- TIME ([2]; Baseline): 36.9 ± 0.2
- heart rate when infused [3]: neither peptide had any effects on heart rate
- metabolised at 20 min [4]: 100%

Compound: Oc1cc2c(cc1O)CN(C(=S)NCCc1ccc(Cl)cc1)CCC2 [capsazepine]
- effect on incision-induced infarct size reduction ([5]; 3 mg/kg, internal jugular vein, 10 minutes before the incision): blocked
- HR (heart rate) ([5]; 15 min Ischemia): 396 ± 10 beats/min
- MAP (mean arterial pressure) ([5]; 15 min Ischemia): 115 ± 9 mmHg
- RPP (rate pressure product) ([5]; 15 min Ischemia): 52 ± 5 mmHg/1000
- HR (heart rate) ([5]; 2 hrs Reperfusion): 374 ± 5 beats/min
- MAP (mean arterial pressure) ([5]; 2 hrs Reperfusion): 82 ± 3 mmHg
- RPP (rate pressure product) ([5]; 2 hrs Reperfusion): 39 ± 1 mmHg/1000
- HR (heart rate) ([5]; Baseline): 384 ± 5 beats/min
- MAP (mean arterial pressure) ([5]; Baseline): 121 ± 4 mmHg
- RPP (rate pressure product) ([5]; Baseline): 55 ± 2 mmHg/1000
- infarct size, agent alone, compared to control ([5]; capsazepine alone): no differences were noted for infarct size compared to the control group
- changes in mitochondrial membrane potential induced by capsaicin ([6]; treated 10 minutes prior to capsaicin): blocked
- infarct size sparing effect of capsaicin ([7]; CPZ 3 mg/kg, CsA 2.5 mg/kg, 40 minutes prior to ischemia): blocked the infarct size sparing effect of capsaicin
- change in heart rate afforded by capsaicin ([7]; capsaicin 0.3 mg/kg, CPZ 3 mg/kg, CsA 2.5 mg/kg): reduced the change in heart rate

Compound: CC(=O)Nc1nc2c(Oc3cc(-c4ccc(C(F)(F)F)cc4)ncn3)cccc2s1 [AMG517]
- adverse effect in human clinical trials [8]: caused hyperthermia

Compound: COc1cc(CNC(=O)CCCC/C=C/C(C)C)ccc1O [capsaicin]
- HR ([1]; 15 min Ischemia): 377 ± 11 beats/min
- MAP ([1]; 15 min Ischemia): 118 ± 10 mmHg
- RPP ([1]; 15 min Ischemia): 51 ± 5 mmHg/1000
- HR ([1]; 2 hrs Reperfusion): 363 ± 9 beats/min
- MAP ([1]; 2 hrs Reperfusion): 87 ± 7 mmHg
- RPP ([1]; 2 hrs Reperfusion): 39 ± 3 mmHg/1000
- HR ([1]; Baseline): 370 ± 6 beats/min
- MAP ([1]; Baseline): 134 ± 3 mmHg
- RPP ([1]; Baseline): 58 ± 2 mmHg/1000
- myocardial infarct size ([1]; given just prior to reperfusion, n=6/group, control 61±2%): 45±1%
- infarct size reduction when compared to control ([1]; single intravenous bolus 5 minutes prior to reperfusion): 27%
- mitochondrial membrane potential (TMRE) ([6]; 0.1-10 μM, over 30 minutes): dose-dependently decreased mitochondrial membrane potential
- LDH release ([9]; 0.1 μM): reduced LDH release
- reduction of LDH release ([9]; 1 and 10 μM): did not occur
- heart rate, isolated un-paced rat hearts ([3]; capsaicin 0.1 μM versus vehicle (DMSO)): increased heart rate during the first 15 minutes of infusion
- infarct size ([7]; 0.1 mg/kg and 1.0 mg/kg): partial effects
- infarct size ([7]; 0.3 mg/kg): maximally decreased infarct size
- myocardial infarct size ([7]; 3.0 mg/kg): failed to reduce myocardial infarct size
- myocardial infarct size ([7]; 0.1-1.0 mg/kg): reduced myocardial infarct size
- heart rate after intravenous administration ([7]; 0.1-3.0 mg/kg intravenously): dose-dependently increased heart rate
- HR [7, 10]: 373 ± 10 beats/min
- MAP [7, 10]: 110 ± 7 mmHg
- RPP [7, 10]: 47 ± 4 mmHg/1000
- HR [7, 11]: 360 ± 21 beats/min
- MAP [7, 11]: 89 ± 14 mmHg
- RPP [7, 11]: 40 ± 7 mmHg/1000
- HR [7, 12]: 385 ± 15 beats/min
- MAP [7, 12]: 104 ± 10 mmHg
- RPP [7, 12]: 46 ± 5 mmHg/1000
- HR [7, 13]: 420 ± 9 beats/min
- MAP [7, 13]: 113 ± 5 mmHg
- RPP [7, 13]: 53 ± 3 mmHg/1000
- HR [7, 14]: 362 ± 6 beats/min
- MAP [7, 14]: 86 ± 5 mmHg
- RPP [7, 14]: 39 ± 2 mmHg/1000
- HR [7, 15]: 368 ± 6 beats/min
- MAP [7, 15]: 85 ± 3 mmHg
- RPP [7, 15]: 38 ± 2 mmHg/1000
- HR [7, 16]: 367 ± 3 beats/min
- MAP [7, 16]: 79 ± 3 mmHg
- RPP [7, 16]: 36 ± 2 mmHg/1000
- HR [7, 17]: 370 ± 4 beats/min
- MAP [7, 17]: 72 ± 4 mmHg
- RPP [7, 17]: 35 ± 2 mmHg/1000
- HR ([7]; Baseline, capsaicin 0.1 mg/kg): 377 ± 13 beats/min
- MAP ([7]; Baseline, capsaicin 0.1 mg/kg): 128 ± 4 mmHg
- RPP ([7]; Baseline, capsaicin 0.1 mg/kg): 60 ± 5 mmHg/1000
- HR ([7]; Baseline, capsaicin 0.3 mg/kg): 370 ± 11 beats/min
- MAP ([7]; Baseline, capsaicin 0.3 mg/kg): 137 ± 7 mmHg
- RPP ([7]; Baseline, capsaicin 0.3 mg/kg): 60 ± 5 mmHg/1000
- HR ([7]; Baseline, capsaicin 1.0 mg/kg): 353 ± 11 beats/min
- MAP ([7]; Baseline, capsaicin 1.0 mg/kg): 131 ± 6 mmHg
- RPP ([7]; Baseline, capsaicin 1.0 mg/kg): 55 ± 3 mmHg/1000
- HR ([7]; Baseline, capsaicin 3.0 mg/kg): 357 ± 8 beats/min
- MAP ([7]; Baseline, capsaicin 3.0 mg/kg): 127 ± 4 mmHg
- RPP ([7]; Baseline, capsaicin 3.0 mg/kg): 53 ± 2 mmHg/1000

Compound: YGRKKRRQRRRGGAIIITILDTEIS [A5-cal]
- heart rate when infused [3]: neither peptide had any effects on heart rate
